# Like-named read-outs stand apart in the source and are kept apart here.
# Assays:
# Type in all cases: biochemical
# [1] = molecular target: T1, 20S proteasome β5 subunit (chymotrypsin-like activity) (Homo sapiens, UniProt P28074); assay: fluorometric ChT-L screening assay, % inhibition at […]; conditions: read-out: ChT-L Activity (% Inhibition at 20 μM) ^1
# T1 construct: gene PSMB5; whole human 20S proteasome (Biomol); with other subunits of the 20S proteasome
# T1 sequence (P28074 60-263): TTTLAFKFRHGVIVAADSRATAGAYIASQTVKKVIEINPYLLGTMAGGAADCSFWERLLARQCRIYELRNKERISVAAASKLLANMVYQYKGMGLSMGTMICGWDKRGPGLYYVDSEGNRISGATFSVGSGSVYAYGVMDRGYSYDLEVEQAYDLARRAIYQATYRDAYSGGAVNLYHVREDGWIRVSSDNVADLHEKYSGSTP
# [2] = molecular target: T1, 20S proteasome β5 subunit (chymotrypsin-like activity); assay: fluorometric ChT-L assay with Suc-LLVY-AMC, continuous; IC50 […], Ki by Cheng-Prusoff
# [3] = molecular target: T1, 20S proteasome β5 subunit (chymotrypsin-like activity); assay: as above; remark: listed apart in the source
Structure (SMILES),inhibition at 20 µM [1],further results
"N#Cc1ccc(N2CC2(Cl)C(F)(F)F)cc1 (centres unmarked) [compound 18, CTMA 18]",37 ± 0.5%,
"FC(F)(F)C1(Cl)CN1c1ccc2cc3ccccc3cc2c1 (centres unmarked) [compound 21, CTMA 21]",,Ki [2]: 1600 ± 130 nM
"FC(F)(F)C1(Cl)CN1c1ccc(N=Nc2ccccc2)cc1 (centres unmarked) [compound 22, CTMA 22]",,Ki [3]: 1600 ± 80 nM
"FC(F)(F)C1(Cl)CN1c1ccc(N2CCOCC2)cc1 (centres unmarked) [compound 23, CTMA 23]",41 ± 1.2%,
"O=C1CCCN1c1cccc(N2CC2(Cl)C(F)(F)F)c1 (centres unmarked) [compound 25, CTMA 25]",34 ± 1.4%,

# From PMC9603864, “Novel Class of Proteasome Inhibitors: In Silico and In Vitro Evaluation of Diverse Chloro(trifluoromethyl)aziridines” (International Journal of Molecular Sciences, 2022)
